Measured values as given in US8563715B2, “Pyrimidine derivative having cell protecting effect and uses thereof” (Zenyaku Kogyo Kabushikikaisha, priority 2008, dated 2013).

Legend:
[1] = system: neurons in astrocyte/neuron co-culture; experiment: Brain cell damage induced by hydrogen peroxide treatment (neuroprotective effect, microscope observation); type: cell-based; settings: Rattus norvegicus, hydrogen peroxide (250 μM), 24 hours, read-out: Concentration for complete inhibition of neuronal death
Protocol: (§1) The brain was removed from 1 to 2 day old Wistar rats (Charles River) or Sprague-Dawley (IGS) rats (Charles River), and the cerebral cortex including the hippocampus was excised under ice cooling. After this cerebral cortex was minced, it was digested with papain solution (9 U/ml) containing DNase I (30 U/ml) at 37 degrees Celsius for 15 minutes, dispersing the cells. After further carrying out mechanical dispersing by pipetting, it was passed through a cell strainer with a pore size of 70 μm, and a cell suspension was obtained. Cells derived from 1.4 cerebra were seeded on 150 mm tissue culture dish (Iwaki Glass), and primary culture was carried out at 37 degrees Celsius and 5% CO2 using a D-MEM medium (Invitrogen) containing 10% heat-inactivated fetal calf serum (JRH). One day after the start of the culture, the nonadherent cells were removed, and the primary cultured astrocytes were obtained by continuing the culture for 4 to 5 further days. The primary cultured astrocytes were dispersed by trypsin treating, suspended in cryopreservation solution, and cryopreserved.
(§2) After thawing the cryopreserved primary cultured astrocytes, they were seeded on tissue culture plates (Iwaki Glass), and a confluent astrocyte layer was produced by a further 7 days of secondary culture using a D-MEM medium containing 10% heat-inactivated fetal calf serum. Neurons to be used in the co-culture with the astrocyte layer were obtained from fetal rat cerebrum. Briefly, brains were removed from Wistar rats (Charles River) or Sprague-Dawley (IGS) rats (Charles River) of embryonic age 18.5 days, and the cerebral cortex including the hippocampus was excised under ice cooling. After this cerebral cortex was minced, it was digested in papain solution (9 U/ml) containing DNase I (30 U/ml) at 37 degrees Celsius for 15 minutes, dispersing the cells. After further carrying out mechanical dispersing by pipetting, it was passed through a cell strainer with a pore size of 70 μm, and a cell suspension was obtained. This cell suspension was plated at a density of 1.3×10^5 cells/cm^2 on the astrocyte layer, and a co-culture was carried out using D-MEM/F-12 medium (Invitrogen) containing 10% heat-inactivated fetal calf serum and 5% horse serum (Invitrogen). 2 days after the start of the co-culture, cells were treated for 24 hours with 10 μM cytosine arabinoside in order to suppress the excessive cell proliferation of microglia and the like. 8 to 9 days after the start of the co-culture, cells were used for the test. Additionally, using one portion of the cells, immunofluorescent staining and nuclear staining was carried out with astrocyte recognizing antibodies (anti-GFAP) and neuron recognizing antibodies (anti-MAP2), in order to confirm that the present culture system is a co-culture system of astrocytes and neurons.
(§3) An astrocyte/neuron co-culture cultured on a 96 well plate was used in the test. A predetermined concentration of the test substance and hydrogen peroxide (250 μM) was simultaneously added to the cell culture in each well with continuing cultivation, and analysis was done 24 hours after this treatment. Using an LDH Cytotoxicity Detection Kit (Takara Bio), analysis was carried out in accordance with the included instruction manual, and the damage to the entire co-culture system by the hydrogen peroxide treatment and the protective effect (EC 50 value) of the test substance was evaluated. Further, the cell bodies and the neuronal processes of the neurons were observed by microscope, and the neuroprotective effect was evaluated.

[2] = system: astrocyte/neuron co-culture; experiment: Brain cell damage induced by hydrogen peroxide treatment (LDH assay); type: cell-based; settings: Rattus norvegicus, hydrogen peroxide (250 μM), 24 hours, read-out: 50% inhibition concentration against cell damage in entire co-culture system (EC50 value)
Protocol: as §1, §2, §3

[3] = system: rat brain homogenate (lipid peroxide production); experiment: Antioxidant activity test (rat brain homogenate autoxidation test); type: biochemical; settings: lipid peroxide production suppression, 2 hours at 37 degrees Celsius, thiobarbituric acid method
Protocol: The cerebrum was removed from 7 to 11 week old male Wistar rats (Nihon Ikagaku) or male Sprague-Dawley (IGS) rats (Charles River), physiological saline was added, and a 20% brain homogenate was made. 4 μl of test compound dissolved in DMSO was mixed with 200 μl of brain homogenate and 200 μl of PBS (−) (diluted 100 times), incubated for 2 hours at 37 degrees Celsius and shaken at a rate of 160 times per minute, thereby producing a lipid peroxide. After cooling for 5 minutes, the produced lipid peroxide was measured as a thiobarbituric acid reactive substance by using the thiobarbituric acid method. Briefly, 100 μl of 8.1% dodecyl sulfate, 750 μl of 20% acetic acid adjusted to a pH of 3.5, and 750 μl of 0.8% thiobarbituric acid were added, and boiled for 60 minutes, and then cooled. Next, 500 μl of distilled water and 2.5 ml of N-butanol/pyridine (15:1) were added and after 5 minutes of shaking, the supernatant was taken after centrifuging for 10 minutes at 3000 rpm, and the absorbance at 532 nm was measured. The number of examples was 2 examples. Calculation was done of the (absorbance at each concentration/absorbance of a solvent control)×100, and after logit transformation, the lipid peroxide production suppression effect (IC 50 value) was calculated as an indicator of antioxidant activity.

COc1ccc(C=Cc2nc(N3CCOCC3)c(N)c(N3CCOCC3)n2)cc1 [Compound 131, 5-amino-2-[2-(4-methoxyphenyl)vinyl]-4,6-dimorpholinopyrimidine]
EC100 [1]: 10 µM
EC50 [2]: 8990 nM
IC50 [3]: 7040 nM

Cn1c(/C=C/c2nc(N3CCOCC3)c(N)c(N3CCOCC3)n2)cc2sccc21 [Compound 133, 5-amino-2-[2-(4-methylthiopheno[1,2-b]pyrrol-5-yl)vinyl]-4,6-dimorpholinopyrimidine]
EC100 [1]: 30 µM
EC50 [2]: 2030 nM
IC50 [3]: 1040 nM

Nc1c(N2CCOCC2)nc(/C=C/c2ccc(N3CCCCC3)cc2)nc1N1CCOCC1 [Compound 136, 5-amino-4,6-dimorpholino-2-[2-(4-piperidinophenyl)vinyl]pyrimidine]
EC100 [1]: 3 µM
EC50 [2]: 730 nM
IC50 [3]: 1690 nM

CNc1nc(/C=C/c2ccc(OC)cc2)nc(N2CCOCC2)c1N [Compound 139, 5-amino-2-[2-(4-methoxyphenyl)vinyl]-4-methylamino-6-morpholinopyrimidine]
EC100 [1]: 3 µM
EC50 [2]: 1150 nM
IC50 [3]: 110 nM

COc1ccc(/C=C/c2nc(N(C)C)c(N)c(N(C)C)n2)cc1 [Compound 140, 5-amino-4,6-bis(dimethylamino)-2-[2-(4-methoxyphenyl)vinyl]pyrimidine]
EC100 [1]: 10 µM
EC50 [2]: 5150 nM
IC50 [3]: 550 nM

Nc1ccc(N2CCN(c3nc(N4CCOCC4)nc(N4CCOCC4)c3F)CC2)cc1 [Compound 146, 4-[4-(4-aminophenyl)piperazin-1-yl]-5-fluoro-2,6-dimorpholinopyrimidine]
EC100 [1]: 3 µM
EC50 [2]: 960 nM
IC50 [3]: 1910 nM

Cc1ccc(N2CCN(c3nc(N4CCNCC4)nc(N4CCOCC4)c3F)CC2)cc1 [Compound 149, 5-fluoro-4-[4-(4-methylphenyl)piperazin-1-yl]-6-morpholino-2-(1-piperazinyl)pyrimidine]
EC100 [1]: 10 µM
EC50 [2]: 420 nM
IC50 [3]: 9750 nM

COc1ccc(/C=C/c2nc(N3CCNCC3)c(N)c(N3CCOCC3)n2)cc1 [Compound 170, 5-amino-2-[2-(4-methoxyphenyl)vinyl]-4-morpholino-6-(1-piperazinyl)pyrimidine]
EC100 [1]: 3 µM
EC50 [2]: 990 nM
IC50 [3]: 3100 nM

COc1ccc(/C=C/c2nc(NCCN3CCNCC3)c(N)c(N3CCOCC3)n2)cc1 [Compound 173, 5-amino-2-[2-(4-methoxyphenyl)vinyl]-4-morpholino-6-[2-(1-piperazinyl)ethylamino]pyrimidine]
EC100 [1]: 30 µM
EC50 [2]: 4720 nM
IC50 [3]: 2080 nM

COc1ccc(/C=C/c2nc(N3CCOCC3)c(N)c(N3CCN(CCN(C)C)CC3)n2)cc1 [Compound 175, 5-amino-2-[2-(4-methoxyphenyl)vinyl]-4-[4-(2-dimethylaminoethyl-piperazin-1-yl)]-6-morpholinopyrimidine]
EC100 [1]: 10 µM
EC50 [2]: 3240 nM
IC50 [3]: 2080 nM

COc1ccc(/C=C/c2nc(N3CCOCC3)c(N)c(N3CCN(C(=O)CN)CC3)n2)cc1 [Compound 176, 5-amino-4-(4-aminomethylcarbonylpiperazin-1-yl)-2-[2-(4-methoxyphenyl)vinyl]-6-morpholinopyrimidine]
EC100 [1]: 10 µM
EC50 [2]: 2740 nM
IC50 [3]: 2160 nM

COc1ccc(/C=C/c2nc(N3CCOCC3)c(N)c(N3CCC(N)CC3)n2)cc1 [Compound 196, 5-amino-4-(4-aminopiperidin-1-yl)-2-[2-(4-methoxyphenyl)vinyl]-6-morpholinopyrimidine]
EC100 [1]: 10 µM
EC50 [2]: 3780 nM
IC50 [3]: 2730 nM

COc1ccc(/C=C/c2nc(NCC(=O)OC(C)(C)C)c(N)c(N3CCOCC3)n2)cc1 [Compound 197, 5-amino-4-(4-tert-butoxycarbonylmethylamino)-2-[2-(4-methoxyphenyl)vinyl]-6-morpholinopyrimidine]
EC100 [1]: 3 µM
EC50 [2]: 550 nM
IC50 [3]: 990 nM

COc1ccc(/C=C/c2nc(N3CCOCC3)c(N)c(N(C)C3CCN(C)CC3)n2)cc1 [Compound 198, 5-amino-2-[2-(4-methoxyphenyl)vinyl]-4-[N-methyl-N-(1-methylpiperidin-4-yl)amino]-6-morpholinopyrimidine]
EC100 [1]: 10 µM
EC50 [2]: 3740 nM
IC50 [3]: 1040 nM

COc1ccc(CCc2nc(N3CCNCC3)c(N)c(N3CCOCC3)n2)cc1 [Compound 199, 5-amino-2-[2-(4-methoxyphenyl)ethyl]-4-(1-piperazinyl)-6-morpholinopyrimidine]
EC100 [1]: 10 µM
EC50 [2]: 3050 nM
IC50 [3]: 8120 nM

COc1ccc(/C=C/c2nc(N3CCOCC3)c(F)c(N3CCOCC3)n2)cc1 [Compound 216, 5-fluoro-2-[2-(4-methoxyphenyl)vinyl]-4,6-dimorpholinopyrimidine]
EC100 [1]: 3 µM
EC50 [2]: 730 nM
IC50 [3]: 860 nM
